Test results reported in patent publication US11571484B2, “Compositions that target tumor-associated macrophages and methods of use therefor” (Sanford Burnham Prebys Medical Discovery Institute, priority 2017, dated 2023).
Ends that are not written are not given here.

Columns and labels:
peritoneal macrophages = assay: In vivo phage display on peritoneal cells of 4T1 tumor-bearing versus normal mice; parameters: species or system mouse; settings: phage-displayed peptide, peritoneal cells of 4T1 tumor mice
Protocol: A, Naive phage library was injected intraperitoneally in 4T1 tumor-bearing mice and age-matched normal mice, and allowed to circulate for two h. Peritoneal cells were collected, the accompanying phages were rescued and the peptide-encoding segment of phage DNA was sequenced. […] Peritoneal cells were extracted from the mice, seeded on coverslips, allowed to attach for 2 h, fixed, permeabilized, and stained for CD206. CD206+ cells were counted from 6 different confocal images, 2 from each mouse. C, Highly repeated sequences obtained from the first round of the biopanning experiment shown schematically in panel A. D, Frequency of phage clones encoding UNO or a randomly picked peptide (CIGVSSDC) divided by the total number of repeated sequences) in the 4T1 tumor-bearing and normal mice.
Ten days later, the 4T1 mouse and a Balb/c female mouse of the matched age, were injected with 500 μL of a 7×10^10 pfu/mL of purified CX7C long-circulating library that bears a mutation on the p17 protein of tail fiber^45. After 2 h the mice were anesthetized and peritoneal cells were collected, washed by centrifugation, and lysed by hand-held homogenizer in 2 mL of LB+NP40 1%. The phage was amplified in E. coli strain BLT5403 for high throughput sequencing of peptide encoding segment of the phage genomic DNA using Ion Torrent semiconductor sequencing system.
In vivo phage display was carried out on orthotopic breast cancer bearing mice as outlined in FIG. 1A. Compared to peritoneal cells of healthy mice, […] macrophages were ˜5-fold overrepresented in Balb/c mice bearing metastatic syngeneic 4T1 breast tumors (FIG. 1B). We hypothesized that a peptide that binds to peritoneal macrophages in tumor-bearing mice may also target M2-like TAMs. Mice with 4T1 tumors were injected intraperitoneally (i.p.) with a phage library expressing 9-amino acid cyclic CX7C peptides. After 2 h, peritoneal cells were collected, bound phages were rescued by amplification, and the resulting phage pool was subjected to high-throughput sequencing of the peptide-encoding segment of the phage genome. […]

[1] = biological target: T1, recombinant mouse macrophage mannose receptor rmMMR/CD206 (Mus musculus, UniProt Q61830); assay: Fluorescence anisotropy assay with mouse recombinant CD206; type: binding; settings: 50 nM FAM peptide, 1 μM protein, 25 °C
T1 construct: purchased R&D Systems 2535-MM-050
T1 sequence (Q61830 20-1456): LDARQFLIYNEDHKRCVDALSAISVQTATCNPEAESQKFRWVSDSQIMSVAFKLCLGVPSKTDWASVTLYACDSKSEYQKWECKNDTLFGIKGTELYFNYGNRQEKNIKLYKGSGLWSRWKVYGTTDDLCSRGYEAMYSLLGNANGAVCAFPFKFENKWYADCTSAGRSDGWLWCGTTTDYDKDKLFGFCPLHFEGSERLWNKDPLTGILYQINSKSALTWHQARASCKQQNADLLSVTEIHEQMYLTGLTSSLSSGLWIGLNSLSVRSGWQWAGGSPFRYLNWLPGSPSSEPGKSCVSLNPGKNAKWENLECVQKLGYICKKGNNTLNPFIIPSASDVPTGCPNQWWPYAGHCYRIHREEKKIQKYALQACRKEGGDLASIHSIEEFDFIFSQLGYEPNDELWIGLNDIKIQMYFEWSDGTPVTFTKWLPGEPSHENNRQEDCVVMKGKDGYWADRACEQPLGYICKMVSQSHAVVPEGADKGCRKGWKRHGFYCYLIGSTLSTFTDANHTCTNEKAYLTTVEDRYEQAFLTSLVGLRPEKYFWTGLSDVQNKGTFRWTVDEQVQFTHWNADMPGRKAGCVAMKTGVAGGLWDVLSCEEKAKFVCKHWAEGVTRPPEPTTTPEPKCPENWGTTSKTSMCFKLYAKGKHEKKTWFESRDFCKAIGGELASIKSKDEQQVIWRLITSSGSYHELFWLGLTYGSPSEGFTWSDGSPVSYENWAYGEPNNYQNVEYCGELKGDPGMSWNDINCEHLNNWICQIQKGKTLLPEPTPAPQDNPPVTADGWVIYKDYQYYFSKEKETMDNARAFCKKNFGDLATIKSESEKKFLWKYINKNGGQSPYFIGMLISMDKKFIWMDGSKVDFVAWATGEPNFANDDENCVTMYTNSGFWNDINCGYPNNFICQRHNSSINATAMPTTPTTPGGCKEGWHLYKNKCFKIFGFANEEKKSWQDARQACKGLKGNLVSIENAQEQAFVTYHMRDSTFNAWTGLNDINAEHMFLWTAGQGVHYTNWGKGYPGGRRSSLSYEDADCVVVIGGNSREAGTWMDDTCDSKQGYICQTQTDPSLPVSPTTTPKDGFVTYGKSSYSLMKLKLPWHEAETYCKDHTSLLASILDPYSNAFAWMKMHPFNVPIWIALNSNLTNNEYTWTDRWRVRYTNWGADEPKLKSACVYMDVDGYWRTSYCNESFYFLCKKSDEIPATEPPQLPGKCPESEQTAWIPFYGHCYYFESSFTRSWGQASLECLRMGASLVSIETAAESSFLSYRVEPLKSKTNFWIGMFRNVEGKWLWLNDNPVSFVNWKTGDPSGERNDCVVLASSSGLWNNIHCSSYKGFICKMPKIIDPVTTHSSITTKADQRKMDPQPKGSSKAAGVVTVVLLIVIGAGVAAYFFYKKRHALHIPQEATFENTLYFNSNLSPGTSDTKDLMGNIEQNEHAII
Protocol: The stocks of fluorescent ligands (FAM-UNO, FAM-CSPGAK and FAM-CPMTDNE) in mQ water were stored at −20° C. […], 150 mM NaCl, 1 mM CaCl2, 0.1% Pluronic F-127, pH 7.4) on the day of experiment. The concentration of fluorescent ligands was determined by absorbance of FAM (E495=75000 M^−1 cm^−1).
The recombinant mouse macrophage mannose receptor rmMMR/CD206 (R&D Systems, catalog number: 2535-MM-050) and recombinant mouse CD163 (R&D Systems, catalog number: 7435-CD-050) were reconstituted at 1 mg/ml in IB, aliquoted and stored at −20° C. To generate linearized version of cyclic FAM-UNO peptide, the peptide at 1 mM concentration was preincubated for 24 h at room temperature in a dark place with 3 mM DTT and diluted with IB 2×10^5 times before the FA assay. The control experiment with FAM-CPMTDNE peptide (FIG. 22) was performed to rule out the possibility of disulphide bond formation, which could affect the binding properties of linear peptides. Initially, the peptide was preincubated in DMSO for 4 days at room temperature to enhance the disulphide bond formation, and then diluted in IB buffer with 3 mM DTT, and the disappearance of preformed dimer was observed as a change in FA signal.
In all experiments, FA signal measurements were done under pseudo first-order conditions with 50 nM singly labelled FAM peptides and 1 μM proteins. […] Assays were carried out in kinetic mode in a total volume of 30 μl at 25° C. on the PHERAstar (BMG Labtech, Germany) microplate reader using an optical module with excitation and emission filters of 485 nm (slit 10 nm) and 520 nm (slit 10 nm), respectively. Dual emission detection mode allows simultaneous recording of intensities that are parallel (l) and perpendicular (1) to the plane of excitation light. […] The background fluorescence (receptor and buffer components in the absence of fluorescent ligand) was subtracted independently from all intensity channels. FA signals at time t after initiation of binding reaction was calculated as parameters r(t) from the equation: […]

[2] = system: peritoneal cells (CCR2+ macrophages) of 4T1 tumor-bearing mice; assay: Flow cytometry of FAM-peptide binding to peritoneal cells from 4T1 tumor mice; type: cell-based, mouse; settings: anti-CD206 10 μg/mL
Protocol: A, Change in fluorescence anisotropy of FAM-UNO (dotted line) and FAM-UNO in DTT (solid line) while incubating with mouse recombinant CD206. B, Change in fluorescence anisotropy of FAM-CSPGAK with mouse recombinant CD206 (solid line) or with CD163 (dotted line) and of FAM-CPMTDNE (control) with CD206 (dashed line). C, FAM-UNO binds selectively to CCR2^+ macrophages collected from the peritoneal cavity of 4T1 tumor-bearing mice, as 94.3% of FAM^+ cells are CCR2^+ cells. The analysis was done gating for the FAM^+ population (left panel). In these 4T1 tumor bearing mice, 58% of peritoneal cells are macrophages, i.e. CCR2^+ cells (right panel). D, FAM-UNO binding to peritoneal cells is inhibited by preincubating with 10 µg/mL of anti-CD206, whereas the preincubation with anti CD206 antibody had no effect on FAM-LyP-1 binding. In panels A and D are shown representative graphs from three independent experiments. In panels c and d are shown results from three independent experiments (n=3 mice) and bars of panel D represents mean+SEM.
Peritoneal cells were extracted from Balb/c mice 2 weeks after inoculation of 10^6 cells orthotopically). Mice were anesthetized and intraperitoneally injected with 5 mL of PBS+1% BSA, the abdomen was massaged to detach macrophages and the peritoneal fluid was collected. This procedure typically yielded 5-9×10^6 cells. Cells were concentrated to 1 mL in the same peritoneal fluid. For FAM-peptide incubation, the peptides were incubated for 30 minutes at 4° C. For antibody incubation the cells were incubated with antibody for 1 h at 4° C. A647 Rat anti-CCR2 (Biolegend, CA, USA. Catalog number 150603) was incubated for 1 h at 4° C. at a dilution of 1/200. FAM-peptides were incubated at a concentration of 0.5 μg/mL, and Rat anti-CD206 (Bio-Rad, CA, USA. Product code MCA2235GA) was incubated at a concentration of 10 μg/mL. Binding of FAM-peptides was monitored with 488 nm channel and CCR2 labeling was assessed in the 647 nm channel using A647 Anti-CCR2 (Biolegend, CA, USA). After incubation of FAM-Peptides or antibodies, the cells were washed 3 times at 4° C. with PBS-Tby centrifugation at 250 g for 6 minutes, followed by flow cytometry analysis (Accuri, BD Biosciences, CA, USA).

Substance: CGEKRTRGC [phage clone previously identified together with LyP-1]
- representation among sequenced phage clones (peritoneal macrophages): second most abundant phage clone overrepresented in the cancer mice

Substance: FAM-CPMTDNE: FAM-labeled control peptide CPMTDNE (SEQ ID NO: 7) (not fully specified; FAM label) [reference compound]
- change in fluorescence anisotropy (interaction) with mouse recombinant CD206 [1]: did not cause significant changes in anisotropy values

Substance: FAM-LyP-1: FAM-labeled LyP-1 (CGNKRTRGC; SEQ ID NO: 4), peptide that targets cell surface p32 (not fully specified (N-terminus); cysteine pairing not given here) [reference compound]
- reduction of binding to peritoneal cells by pre-incubation with anti-CD206 antibody [2]: no effect
